Source: patent US4636496A, “Compositions inhibiting murine MXT ductal carcinoma” (Wayne State University, priority 1986, dated 1987)
Entries after “also recorded” stand apart in the source; their conditions may differ.

Columns and labels:
[1] = tested on: MXT Mouse Mammary Ductal Carcinoma; experiment: Subcutaneous treatment of early stage, hormone-dependent MXT mouse mammary ductal carcinoma; format: in vivo
[2] = biological target: T1, Porcine Endometrial Estrogen Sulfotransferase (Sus scrofa, UniProt A0A286ZW98); experiment: Inhibition of porcine endometrial estrogen sulfotransferase; format: biochemical; settings: compared within Table III
T1 construct: from tissue; host or cells: porcine endometrium
T1 sequence (A0A286ZW98 1-296): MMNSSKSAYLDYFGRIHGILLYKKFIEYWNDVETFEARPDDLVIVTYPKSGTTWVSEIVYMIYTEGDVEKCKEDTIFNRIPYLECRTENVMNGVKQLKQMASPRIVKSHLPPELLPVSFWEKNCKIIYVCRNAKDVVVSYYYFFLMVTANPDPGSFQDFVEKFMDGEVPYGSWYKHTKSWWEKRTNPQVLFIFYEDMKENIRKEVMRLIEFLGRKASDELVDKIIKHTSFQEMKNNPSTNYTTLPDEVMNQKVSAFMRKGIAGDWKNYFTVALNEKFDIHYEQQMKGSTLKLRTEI
Experimental: Compounds prepared in the foregoing examples were evaluated as inhibitors of porcine estrogen sulfotransferase as taught by Rozhin et al., J. Biol. Chem., 252:7214-7220 (1977) and Brooks et al., U.S. Pat. No. 4,496,555.

[3] = tested on: Mammary Tumors Induced by Dimethylbenz(a)anthracene; experiment: Effects on mammary tumors induced by dimethylbenz(a)anthracene (DMBA), s.c. injection for 35 days; format: in vivo, Sprague-Dawley rats; settings: for Mean tumor volume / Mean tumor no. (no. tumors/rat): 24 mg/kg s.c., 35 days, 7-10 rats/group, mean ± S.D.; for Mean tumor volume: control (None) 1.48 ± 2.09; for Mean tumor no. (no. tumors/rat): control (None) 3.30 ± 2.60; for significance of treatment results (in words): compared to control tumors, Student's t test
Source text: Chemicals and Reagents. Estrone, 17-beta-estradiol 3-benzoate, estrone sulfate, aryl sulfatase (EC 3.1.6.1), beta-glucuronidase (EC3.2.1.31), 7,12-dimethylbenz(a)anthracene (DMBA), and 5-fluorouracil were obtained from Sigma Chemical Co. (St. Louis, Mo.). 4-Nitroestrone 3-methyl ether, 4-nitroestrone, and 2,4-dinitroestrone were synthesized by the procedures of Tomson et al., supra.
Animals. Virgin female Sprague-Dawley rats (The Charles River Co., Wilmington, Mass.) were housed 4 to 6/cage in a light (12 hr/day)--and temperature (24°)--controlled room and given a diet of Wayne Lab-Blox laboratory chow (Allied Mills, Inc., Chicago, Ill.) and tap water ad libitum. At 50 days of age, rats were intubated with DMBA (10 mg/100 g body weight) dissolved in sesame oil (20 mg/ml). Beginning at Day 45 after intubation, all animals were weighed and palpated once per week. Tumor volumes were calculated by measuring 2 diameters with a caliper and the third dimension with a ruler, then by substituting values:
where a, b, and c are the 3 different diameters of the tumor. The agreement of the in vivo tumor volume and measurements of excised tumors identified at necropsy was 95 to 99%. When about 75% of rats had palpable tumors (81 to 92 days after intubation), the animals were randomized, excluding rats with tumors larger than 2.00 ml and rats with more than 5 tumors/animal. The mean initial tumor volumes in control and treated groups ranged between 0.4 and 0.9 cu cm over the various experiments. When necessary, ovariectomy (ether anesthesia) was performed on the first or second day after the initiation of the study. The significance of difference between treatment groups was examined by Student's t test.
Estrogen derivatives (>99% pure by thin-layer chromatography) were injected s.c. daily (Monday to Friday). After distribution in SSV (steroid-suspending vehicles, 0.9% NaCl solution with 0.5% sodium carboxymethyl-cellulose-7, 0.4% polysorbate; and 0.9% benzylalcohol, obtained from the National Cancer Institute), the steroids (20 mg/ml) were administered at 0.12 to 54 mg/kg body weight. The suspension was sonicated before use to achieve uniform distribution. 17-Beta-estradiol 3-benzoate was dissolved directly in sesame oil to a concentration of 2.5 mg/ml; 5 fluorouracil was dissolved in water (25 mg/ml). The control group was given injections of SSV or sesame oil alone.
The toxicity of all antitumor agents was determined by comparing body weights of treated and control animals.
Postmortem Examination and Histopathology of Tumors. Rats were selected for colchicine injections (2 mg/kg body weight) 2 hr prior to necropsy to obtain an accurate measurement of mitotic indices of tumors. Animals were sacrificed with CO2 gas or bled to death via the abdominal aorta. Tumors and tissues were removed and preserved in 10% neutral buffered formalin for histopathological examination. Gross anomalies of abdominal, thoracic, and cranial cavities were recorded. Uteri were removed, trimmed, and weighed fresh. Ovaries, adrenals, and pituitaries were trimmed and weighed after fixation.
Histopathological observations on hematoxylin-and iosin-stained tumor and organ sections were performed, and comparisons between the control and treated groups were carried out using computer analysis. The microscopic parameters used to judge the degree of anaplasia in DMBA-induced mammary neoplasms, when treated animals were compared to controls, were: (a) the type of epithelium or mammary tissue involved; (b) the degree of encapsulation of the neoplasm; (c) the number of mitotic figures observed; (d) the extent of stroma invasions of the neoplastic epithelium; (e) the severity of lymphocytic infiltration of the neoplasms; and (f) the regressive, degenerative, or vacuolative changes in the neoplastic epithelium. […] Histological examination was performed on all mammary tumors. […]

[4] = tested on: hormone dependent mammary tumors, induced by 7,12-dimethylbenz(a)anthracene; settings: cited from earlier work

| Structure (SMILES) | growth of MXT mouse mammary ductal carcinoma (in words) ([1]; mouse, in vivo) | T/C Value Day 39 (%) ([1]; s.c. 200 mg/kg, QD 1-19) | Time for Median Tumor to Reach 500 mg ([1]; s.c. 200 mg/kg, QD 1-19, control 18) | estrogen sulfotransferase inhibitory activity (in words) [2] | Mean tumor volume [3] [cu cm] | Mean tumor no. (no. tumors/rat) [3] [no. tumors/rat] | growth of hormone dependent mammary tumors (in words) ([4]; DMBA-induced) | route of administration to which utility is limited (in words) ([4]; particularly intraperitoneal or subcutaneous injection) | significance of treatment results (in words) [3] |
| --- | --- | --- | --- | --- | --- | --- | --- | --- | --- |
| C[C@]12CC[C@@H]3c4cccc([N+](=O)[O-])c4CC[C@H]3[C@@H]1CC[C@@H]2O [4-Nitroestra-1,3,5(10)-trien-17-beta-ol] | inhibited the growth of MXT mouse mammary ductal carcinoma; also recorded: shown to inhibit the growth of murine MXT mammary ductal carcinoma | 8.2 | 45 | most active compound | – | – | – | – | – |
| COc1ccc2c(c1[N+](=O)[O-])CC[C@@H]1[C@@H]2CC[C@]2(C)C(=O)CC[C@@H]12 [4-Nitroestrone 3-methyl ether, 4-Nitroestrone 3-Methyl Ether] | – | – | – | – | 0.05 ± 0.05 | 1.35 ± 0.40 | found to inhibit the growth of hormone dependent mammary tumors | essentially limited to parental administration | – |
| COc1c(Br)cc2c(c1Br)CC[C@@H]1[C@@H]2CC[C@]2(C)C(=O)CC[C@@H]12 [2,4-Dibromoestrone 3-methyl ether, 2,4-dibromoestrone 3-methyl ether] | – | – | – | – | 1.24 ± 1.07 | 4.26 ± 2.51 | – | – | insignificant |
| C[C@]12CC[C@@H]3c4cc([N+](=O)[O-])c(O)c([N+](=O)[O-])c4CC[C@H]3[C@@H]1CCC2=O [2,4-Dinitroestrone, 2,4-dinitroestrone] | – | – | – | – | 1.14 ± 1.37 | 2.90 ± 1.67 | – | – | insignificant |
| C[C@]12CC[C@@H]3c4ccc(O)c([N+](=O)[O-])c4CC[C@H]3[C@@H]1CCC2=O [4-Nitroestrone, 4-nitroestrone] | – | – | – | – | 0.75 ± 0.10 | 1.95 ± 2.60 | – | – | insignificant |
